From EP1242012B1, “IMPROVED TRANSDERMAL CONTRACEPTIVE DELIVERY SYSTEM AND PROCESS” (priority 1999, dated 2001)

Legend:
[1] = human, in vivo, topical or ocular
Source text: The total duration of study for each subject participating in this study is 5 months. It consists of one base-line period followed by three treatment periods and one recovery period. Each period is one menstrual cycle of the person subjects.
Subjects attending this 5 month-long study were randomly divided and sequentially admitted into three study groups. Group A, B and C subjects received one piece of 7.5 cm^2, 10.0 cm^2 and 12.5 cm^2 TCDS patch weekly, respectively, for three consecutive weeks I each of the three treatment periods. During the baseline and recovery periods, all the subjects received only the placebo patch of the corresponding size for three consecutive weeks. During the fourth week of each study period, no patch was worn by the subjects in any treatment groups.
According to the blood sampling schedule, a total of 57 blood samples (about 10 ml per sample) were taken from each subject during the 5-month study. During the three treatment cycles, 15 samples were taken through out the 21 days of patch wearing period. At the end of the third treatment cycle, 5 additional blood samples were taken during the 24 hours post patch removal which allows the elimination pharmacokinetics of drugs to be studied. […]
Serum level of levonorgestrel (LNG), ethinyl estradiol (EE) as well as luteinizing hormone (LH), progesterone (P) and estradiol (E2) were analyzed by radio-immunassay methods.

[2] = human, in vivo, topical or ocular; cited from earlier work

C#C[C@]1(O)CC[C@H]2[C@@H]3CCc4cc(O)ccc4[C@H]3CC[C@@]21C [ethinyl estradiol]
levels achieved by the TCDS formulation of the present invention [1]: 0.035 to 0.075 ng/mL

C#C[C@]1(O)CC[C@H]2[C@@H]3CCC4=CC(=O)CC[C@@H]4[C@H]3CC[C@@]21CC [levonorgestrel]
levels achieved by the system described in the '956 patent [2]: 0.4 ng/mL
